According to patent US11022604B2, “Dock derived compound against laminin receptor (37 LR) and uses thereof” (Purdue Research Foundation, priority 2017, dated 2021):
Read-outs that look alike come from different tables or passages of the source.

System: PC-3 cells
Experiment: BrdU incorporation assay
Type: cell-based
Details: read-out: IC50, inhibition of BrdU incorporation (proliferation)
Experimental: PC-3 cells were treated with 100 nM to 100 μM C3 for 24 hours and BrdU incorporation was quantified using HRP generated luminescence from an antibody pair recognizing BrdU (n=6, mean±SEM). C3 BrdU signal was normalized to a row where PC-3 cells were exposed to 0.5% DMSO (assay conditions). Curve obtained using GraphPAd Prism as described in the methods.
Cell Viability Screen. PC-3, Endo, TC2-Ras, SH-SY5Y, and LNCaP cells were seeded in 96-well plates at 1,500 cells per well using the Scepter cell counter (EMD Millipore). Cells were continuously incubated with compound using a 6-point dose curve: 100, 57.5, 32.4, 18.6, 10.5, and 6.0 μM in their respective complete media. Cell viability was measured by using the cell counting kit-8 (CCK-8, Dojindo). […] CCK-8 absorbance was measured at 450 nm using a GloMax Multimode Reader (Promega). Readings were performed the day after seeding to normalize for variations in cell seeding and after 96 hours of compound treatment. After each reading, CCK-8 media was removed and replaced with media containing compound as described previously. […] As described previously, an initial baseline CCK-8 reading was performed at 24 hours post seeding to correct for variations in seeding density. First, 450 nm values for each well were subtracted from media only readings to correct for baseline absorbance. […]

IC50 (24 hours): 10 µM
IC50 (Homo sapiens, PC-3, 24 h): 10.1 µM
Structure (SMILES): O=C(c1cc(F)cc2c1OCOC2)N1CCN(C2c3ccccc3-c3ccccc32)CC1 [Compound C3, [4-(9h-fluoren-9-yl)piperazino](6-fluoro-4h-1,3-benzodioxin-8-yl)methanone]
